As a reminder, the IC50 is the midpoint of a concentration-inhibition curve. High values mean weaker potency, low ones greater potency.

Where a name gives a salt, the structure may show the parent alone.

For 20 compounds, IC50 results are on record in US5442060A, “Carboxamide derivatives” (Mitsubishi Kasei Corporation, priority 1992, dated 1995).

The target of the assay is T1, ACAT (Homo sapiens, UniProt P35610).
T1 construct: endogenous in cells; host or cells: HepG2
T1 sequence (P35610 1-550): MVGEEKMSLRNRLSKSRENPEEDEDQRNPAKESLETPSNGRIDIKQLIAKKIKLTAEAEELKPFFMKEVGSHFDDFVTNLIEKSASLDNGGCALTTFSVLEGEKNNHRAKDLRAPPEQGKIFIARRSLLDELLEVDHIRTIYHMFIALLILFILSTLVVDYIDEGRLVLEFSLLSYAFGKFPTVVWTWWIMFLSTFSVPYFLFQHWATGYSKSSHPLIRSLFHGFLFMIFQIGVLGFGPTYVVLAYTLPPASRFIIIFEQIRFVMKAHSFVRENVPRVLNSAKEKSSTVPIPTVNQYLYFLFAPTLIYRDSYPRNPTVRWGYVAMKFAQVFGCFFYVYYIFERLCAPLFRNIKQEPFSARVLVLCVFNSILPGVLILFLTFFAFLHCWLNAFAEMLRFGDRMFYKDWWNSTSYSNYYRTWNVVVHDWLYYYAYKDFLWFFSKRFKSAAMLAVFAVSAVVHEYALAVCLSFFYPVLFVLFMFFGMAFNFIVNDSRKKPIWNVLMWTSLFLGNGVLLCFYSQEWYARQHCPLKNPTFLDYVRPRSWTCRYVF
The assay is described as follows: ACAT inhibition: radiolabelled cholesterol oleate production from labelled oleic acid in HepG2 cells. It counts as cell-based. The following applies: concentration required to inhibit 50% of ACAT (cholesterol oleate production vs control). Here is the method:
ACAT inhibition of the compounds of the present invention were assayed by the following method. HepG2 cell coming from human hepatic cancer cell was used for assaying ACAT activity. Thus, the assay was effected by adding radioactivity labelled oleic acid-bovine serum albumin complex into an incubation solution of HepG2 cell and measuring the amount of radioactivity labelled cholesterol oleate produced from the radioactivity labelled oeleic acid within the cell. Therefore, the activity of the compound of this invention to inhibit ACAT was obtained by calculating how much percent lowered the productivity of cholesterol oleate in control group containing no test compound by adding the test compound in each concentration (μM) and then expressing IC50 value, namely concentration of a test compound required to inhibit 50% expression of enzyme.

With `CCCCC[C@@H](CNC(=O)Nc1c(OC(C)C)c(C)nn1C(C)(C)C)c1cccc2c1OCO2` [Example 34, (R)-1-[2-(2,3-methylenedioxyphenyl)heptyl]-3-[1-(1,1-dimethylethyl)-3-methyl-4-(1-methylethoxy)pyrazole-5-yl]urea], the IC50 was determined as 106 nM.

In the case of `CCCCCC(CCC(=O)Nc1c(C(C)C)cccc1C(C)C)c1cccc(OC)c1OC` (centres unmarked) [Example 9, N-(2,6-Diisopropylphenyl)-4-(2,3-dimethoxyphenyl) nonanamide], half-maximal inhibition (IC50) was put at 50 nM.

Take `CCCCC[C@@H](CNC(=O)Nc1c(OC)ccc2c1CCCC2)c1cccc2c1OCO2` [Example 21, (R)-1-[2-(2,3-methylenedioxyphenyl)heptyl]-3-(2-methoxy-5,6,7,8-tetrahydronaphthalene-1-yl) urea]: the midpoint of inhibition, the IC50, lay at 154 nM.

With `CCCCC[C@@H](CNC(=O)Nc1c(N(C)C)ncnc1N(C)C)c1cccc2c1OCO2` [Example 25, (R)-1-[2-(2,3-methylenedioxyphenyl)heptyl]-3-[4,6-bis (dimethylamino)pyrimidine-5-yl]urea], the IC50 is 57 nM.

With `CCCCCC(CC(=O)Nc1c(C(C)C)cccc1C(C)C)c1cc(N(C)C)cc(OC)c1OC` (centres unmarked) [Example 17, N-(2,6-diisopropylphenyl)-3-(2,3-dimethoxy-5-dimethylaminophenyl) octanamide], the midpoint of inhibition, the IC50, lay at 0.9 nM.

Regarding `CCCCCC(CC(=O)Nc1c(C(C)C)cccc1C(C)C)c1cccc2c1OCO2` (centres unmarked) [Example 1, N-(2,6-diisopropylphenyl)-3-(2,3-methylenedioxyphenyl)octanamide], the midpoint of inhibition, the IC50, lay at 10 nM.

Take `CCCCC[C@@H](CNC(=O)Nc1c(OC(C)C)ccc2c1CCCC2)c1cccc2c1OCO2` [Example 20, (R)-1-[2-(2,3-methylenedioxyphenyl)heptyl]-3-(2-isopropoxy-5,6,7,8-tetrahydronaphthalene-1-yl) urea]: half-maximal inhibition (IC50) required 37 nM.

As to `CCCCC[C@@H](CNC(=O)Nc1cccc2c1OC(C)(C)C2)c1cccc2c1OCO2` [Example 24, (R)-1-[2-(2,3-methylenedioxyphenyl)heptyl]-3-(2,3-dihydro-2,2-dimethylbenzofuran-7-yl) urea], the IC50 was 230 nM.

For `CCCCCC(CCC(=O)Nc1c(C(C)C)cccc1C(C)C)c1cccc2c1OCO2` (centres unmarked) [Example 8, N-(2,6-Diisopropylphenyl)-4-(2,3-methylenedioxyphenyl)nonanamide], the IC50 turned out to be 10 nM.

For the compound `CCCCCCC(CC(=O)Nc1c(C(C)C)cccc1C(C)C)c1cccc(OC)c1OC` (centres unmarked) [Example 4, N-(2,6-Diisopropylphenyl)-3-(2,3-dimethoxyphenyl) nonanamide], 6.5 nM corresponded to half-maximal inhibition (IC50).

In the case of `CCCCC[C@H](CC(=O)Nc1c(C(C)C)ccc(N(C)C)c1C(C)C)c1cccc2c1OCO2` [Example 18, (R)-N-(2,6-diisopropyl-3-dimethylaminophenyl)-3-(2,3-methylenedioxyphenyl) octanamide hydrochloride], the IC50 amounted to 101 nM.

As to `CCCCCC(CC(=O)Nc1c(C(C)C)cccc1C(C)C)c1cccc(OC)c1OC` (centres unmarked) [Example 2, N-(2,6-Diisopropylphenyl)-3-(2,3-dimethoxyphenyl)octanamide], the IC50 turned out to be 3 nM.

Take `CCCCC[C@@H](CNC(=O)Nc1c(OC(C)C)ncnc1OC(C)C)c1cccc2c1OCO2` [Example 29, (R)-1-[2-(2,3-methylenedioxyphenyl)heptyl]-3-[4,6-di (1-methylethoxy)pyrimidine-5-yl]urea]: the IC50 was found to be 314 nM.

With `CCCCC[C@@H](CNC(=O)Nc1c(OCC)ccc2c1CCCC2)c1cccc2c1OCO2` [Example 22, (R)-1-[2-(2,3-methylenedioxyphenyl)heptyl]-3-(2-ethoxy-5,6,7,8-tetrahydronaphthalene-1-yl) urea], the midpoint of inhibition, the IC50, lay at 139 nM.

For `CCCCC(CC(=O)Nc1c(C(C)C)cccc1C(C)C)c1cccc(OC)c1OC` (centres unmarked) [Example 3, N-(2,6-Diisopropylphenyl)-3-(2,3-dimethoxyphenyl) heptanamide], the IC50 amounted to 18 nM.

With `CCCCC[C@@H](CNC(=O)Nc1c(OCC)ncnc1N(C)C)c1cccc2c1OCO2` [Example 30, (R)-1-[2-(2,3-methylenedioxyphenyl)heptyl]-3-(4-dimethylamino-6-ethoxypyrimidine-5-yl) urea], the IC50 came out at 109 nM.

In turn, `CCCCC[C@@H](CNC(=O)Nc1c(OC(C)C)c(C)nn1-c1ccccc1)c1cccc2c1OCO2` [Example 31, (R)-1-[2-(2,3-methylenedioxyphenyl)heptyl]-3-[3-methyl-4-(1-methylethoxy)-1-phenylpyrazole-5-yl]urea] showed an IC50 of 28 nM.

The compound `CCCCC[C@@H](CNC(=O)Nc1c(N2CCCC2)ncnc1N1CCCC1)c1cccc2c1OCO2` [Example 26, (R)-1-[2-(2,3-methylenedioxyphenyl)heptyl]-3-(4,6-dipyrrolidinopyrimidine-5-yl) urea] returned an IC50 of 175 nM.

`CCCCCC(CC(=O)Nc1c(C(C)C)cccc1C(C)C)c1cc(C(C)=O)cc(OC)c1OC` (centres unmarked) [Example 10, N-(2,6-Diisopropylphenyl)-3-(5-acetyl-2,3-dimethoxyphenyl) octanamide] yielded an IC50 of 7.6 nM.

Consider `CCCCC[C@@H](CNC(=O)Nc1c(OCC)ccc2c1CCC2)c1cccc2c1OCO2` [Example 23, (R)-1-[2-(2,3-methylenedioxyphenyl)heptyl]-3-(5-ethoxyindane-4-yl) urea], for which the IC50 was determined as 195 nM.
